Assay results: patent US9750805B2, “Calcium flux agonists and methods therefor” (Nant Holdings IP, LLC, priority 2012, dated 2017)

How the values were obtained:
[1] = system: TLR2 ligand response of THP-1 promonocytic leukemia cell line; test: IL-8 release with TLR2 ligand plus suboptimal calcium flux agonist (FIG. 2); format: cell-based, human; settings: THP-1 cells, suboptimal doses of ionophore; beyond cumulative individual responses (synergy)
Procedure: (§1) For example, human promonocytic THP-1 cells were incubated in the presence or absence of a suboptimal dose of the TLR2 ligand Pam2CSK4 and compared to similarly treated cells which also received suboptimal doses of ionophore (here: A23187 and ionomycin). […] In another example, NF-κB THP-1 cells (a THP-1-derived transfectant line harboring an NF-κB-driven luciferase expression cassette) were cultivated in the presence or absence of a suboptimal dose of the TLR2 ligand Pam2CSK4 and compared to similarly treated cells that also received suboptimal doses of various SERCA inhibitors.
Here, the ionophores A23187 and ionomycin, as well as the SERCA inhibitor thapsigargin synergize with the TLR2 ligand (Pam2CYS) in the activation of cytokine release from the human THP-1 promonocytic leukemia cell line. It should be especially noted that while the TLR2 ligand alone provided for about 5 ng/ml IL-8 response, addition of a suboptimal dose of the calcium flux agonists (e.g. 20 nM for thapsigargin, 316 nM for A23187, and 1 μM for ionomycin) produced more than 10-fold quantities of IL-8 production in the cells.

[2] = system: S. aureus; test: Mouse model of S. aureus skin wound infection, pre-infection topical treatment; format: in vivo, C57BL/6 mice; settings: topical 2 mM formulation one day before infection; for bacterial burden at the infection site: day 7, vs vehicle controls; for wound size: days 3, 5 and 7 of infection, vs control treated animals, p<0.01
Procedure: To determine if calcium flux agonists such as the ionophores A23187 and ionomycin or the SERCA pump inhibitor thapsigargin can be used as a pre-treatment of bacterial infection, the inventors treated the shaved dorsal skin of 6-8 week old male C57B1/6 mice with vehicle alone, or formulations containing 2 mM A23187, ionomycin, or thapsigargin. One day later, the inventors superficially infected the dorsal skin of groups of 5 mice with 2×10^6 CFU of S. aureus and evaluated bacterial burden and wound size over the next week.
Topical delivery: A23187 and ionomycin and thapsigargin were reconstituted in dehydrated ethanol (Spectrum Chemicals, Gardena Calif.) to appropriate concentrations for subsequent formulations. In the pre-infection in vivo study, topical formulations consisted of 75% dehydrated ethanol (Spectrum Chemicals), 22% cyclohexane (Sigma-Aldrich), and 3% dimethyl sulfoxide (Sigma-Aldrich). Each topical formulation was delivered by submersing a circular piece of Whatman paper (Whatman, a division of GE Healthcare) with a 1.0 centimeter diameter and applying said circle to the skin of each recipient for 5 minutes.
Preparation of S. aureus for skin inoculation: Briefly, mid-logarithmic phase S. aureus bacteria was washed twice and resuspended in sterile saline (0.9%) at the noted concentrations. Mice: Male mice, 6-8 weeks old, on a C57BL/6 genetic background were used in all experiments (Jackson Laboratories, Bar Harbor, Me.).
Mouse model of S. aureus skin wound infection: To prepare animals for wound infection, the skin of the posterior upper back and neck of mice was shaved using #40 clippers. Next, three parallel 8 mm long full-thickness scalpel cuts (no. 11 blade) were made into the dermis. Resulting wounds were inoculated with 10 μl of S. aureus (2×10^8 CFUs per mL) with a micropipettor. Total lesion size (cm2) measurements were quantified by determining total pixel count from photographed animals using a millimeter ruler as a reference.
Quantification of in vivo S. aureus bacterial burden: To determine in vivo bacterial burden, infected mice were sacrificed on day 7 following infection and lesions were harvested surgically. Harvested tissues were homogenized and bacterial count was determined following plating on appropriate solid growth media.

[3] = system: TLR (TLR2, TLR4, TLR5, TLR9) and NOD (NOD1, NOD2) family members; test: IL-8 production with TLR and NOD ligands plus suboptimal calcium flux agonist (FIGS. 3A-3E); format: cell-based, human; settings: suboptimal doses: 20 nM thapsigargin, 316 nM A23187, 1 μM ionomycin, 10 μM cyclopiazonic acid, 31.6 μM DBHQ
Procedure: To investigate if that observation was also true for other pattern recognition receptors, and especially for TLR and NOD receptors and other ligands, the inventors tested numerous TLR and NOD receptors and various ligands.
The doses used in this experiment were 20 nM for thapsigargin, 316 nM for A23187, 1 μM for ionomycin, 10 μM for cyclopiazonic acid, and 31.6 μM for DBHQ.
Thus, a clear pattern of adjuvant activity of calcium flux agonists on the immune response, and especially on IL-8 production and NF-κB signaling is evident where the immune response is associated with a TLR- or NOD-mediated event.

[4] = molecular target: sarco/endoplasmic reticulum Ca2+ ATPases (SERCA); settings: cited from earlier work
[5] = system: NF-κB THP-1 cells; test: NF-κB luciferase reporter synergy with TLR2 ligand and effect of Ca2+ modulating compounds (FIG. 4); format: cell-based, human; settings: NF-κB THP-1 cells, suboptimal doses of SERCA inhibitors; beyond cumulative individual responses (synergy)
Procedure: as §1
The inventors further investigated if the nature of calcium flux was of significance as increased intracellular calcium may have different origins. To that effect, the inventors used various calcium signaling modulators to investigate the nature of the calcium flux and contribution. As can be readily taken from the data shown, extracellular calcium flux into the cell was critical for synergistic amplification of calcium signaling. More specifically, FIG. 4 illustrates the effects of different Ca^2+ modulating compounds on synergy with respect to NF-κB activation.

[6] = system: S. aureus; test: Killing of intracellular S. aureus by thapsigargin-treated differentiated THP-1 cells (FIG. 11); format: cell-based, human; settings: 1 day with 20 nM thapsigargin vs vehicle, MOI of 10
Procedure: Briefly, a logarithmically dividing S. aureus was pelleted (2000×g for 10 min) and washed three times with Hank's Buffered Salt Solution (Cellgro). Concurrently, 2 day differentiated THP-1 cells (using 1 uM retinoic acid and 1 uM cholecalciferaol, Sigma-Aldrich) followed by 1 day with 20 nM thapsigargin or vehicle were collected and washed in Hank's Buffered Salt Solution. Differentiated cells were supplemented with 10% human serum (Innovative Research) and chilled on ice for 30 minutes. After the 30 minutes, S. aureus (MOI of 10) was added on ice for an additional 20 minutes to synchronize binding. Tubes were then incubated for 20 minutes at 37° C. After 20 minutes, 10 U/mL of lysostaphin (Sigma-Aldrich) was added to eliminate non-internalized bacteria. At the desired time points (20, 30, 60 minutes) 20 uL aliquots were removed and diluted into 10 mL of water. The dilution tubes were vortex and allowed to sit at room temp for 10 minutes to ensure proper lysis of the primary cells. After 10 minutes, the dilution tubes were centrifuged for 10 minutes at 2000×g and the remaining S. aureus was concentrated 20 fold and plated in triplicate on tryptic soy agar (Cellgro) and incubated overnight at 37° C. prior to colony enumeration.

SMILES | amount of IL-8 produced with suboptimal TLR2 ligand Pam2CSK4 [1] | bacterial burden at the infection site [2] | wound size [2] | effect on IL-8 production with TLR and NOD ligands [3] | affinity constant of Thapsigargin:SERCA binding [4] | amount of luciferase produced with suboptimal TLR2 ligand Pam2CSK4 [5] | antimicrobial activity of treated cells against internalized S. aureus [6]
CNc1ccc2oc(C[C@H]3O[C@@]4(CC[C@H]3C)O[C@H]([C@H](C)C(=O)c3ccc[nH]3)[C@H](C)C[C@H]4C)nc2c1C(=O)O [A23187, calcimycin] | significantly increased | significantly fewer bacteria | significantly smaller wound sizes | synergistic effect | – | – | –
C[C@H](CCC(=O)O)C[C@H](C)C[C@H](C)C(=O)/C=C(\O)[C@H](C)C[C@H](C)C/C=C/[C@@H](C)[C@@H](O)[C@@H](C)[C@@H](O)C[C@@H]1CC[C@@](C)([C@H]2CC[C@@](C)([C@@H](C)O)O2)O1 [ionomycin] | significantly increased | significantly fewer bacteria | significantly smaller wound sizes | synergistic effect | – | – | –
C/C=C(/C)C(=O)O[C@H]1C(C)=C2[C@H]([C@@H]1OC(=O)CCCCCCC)[C@@](C)(OC(C)=O)C[C@H](OC(=O)CCC)[C@@]1(O)[C@H]2OC(=O)[C@@]1(C)O [thapsigargin] | – | significantly fewer bacteria | significantly smaller wound sizes | synergistic effect | low picomolar range | significantly increased | greater antimicrobial activity
